According to patent US7947676B2, “Pyrazolo[3,4-d]pyrimidine compounds as antitumor agents” (AstraZeneca AB, priority 2004, dated 2011):

Assays:
EGFR tyrosine kinase = biological target: T1, EGFR tyrosine kinase (Homo sapiens, UniProt P00533); assay: Protein tyrosine kinase phosphorylation assay, Test (a), EGFR; type: biochemical; conditions: recombinant intracellular fragment, ATP at Km concentration; read-out: IC50 (μM) Test (a): Inhibition of EGFR tyrosine kinase protein phosphorylation
T1 construct: Recombinant intracellular fragments of EGFR, erbB2 and erbB4; made in house; host or cells: baculovirus/Sf21 insect cells (cleared lysate)
Description: (§1) This test measures the ability of a test compound to inhibit the phosphorylation of a tyrosine containing polypeptide substrate by EGFR, erbB2 and erbB4 tyrosine kinase enzyme.
(§2) Recombinant intracellular fragments of EGFR, erbB2 and erbB4 (accession numbers X00588, X03363 and L07868 respectively) were cloned and expressed in the baculovirus/Sf21 system. […]
(§3) Constitutive kinase activity of these recombinant proteins was determined by their ability to phosphorylate a synthetic peptide (made up of a random co-polymer of Glutamic Acid, Alanine and Tyrosine in the ratio of 6:3:1). […]
(§4) The immobilised phospho-peptide product of the reaction was detected by immunological methods. […] After further washing, HRP activity in each well of the plate was measured colorimetrically using 22′-Azino-di-[3-ethylbenzthiazoline sulfonate (6)] diammonium salt crystals (ABTS™ from Roche) as a substrate.
(§5) Kinase inhibition for a given compound was expressed as an IC50 value. […] The range of phosphorylation was calculated from the positive (vehicle plus ATP) and negative (vehicle minus ATP) control values.

erbB2 tyrosine kinase = biological target: T2, erbB2 tyrosine kinase (Homo sapiens, UniProt P04626); assay: Protein tyrosine kinase phosphorylation assay, Test (a), erbB2; type: biochemical; conditions: recombinant intracellular fragment, ATP at Km concentration; read-out: IC50 (μM) Test (a): Inhibition of erbB2 tyrosine kinase protein phosphorylation
T2 construct: Recombinant intracellular fragments of EGFR, erbB2 and erbB4; made in house; host or cells: baculovirus/Sf21 insect cells (cleared lysate)
Description: as §1, §2, §3, §4, §5

erbB2 = biological target: T3, erbB2 (Homo sapiens, UniProt P04626); assay: Clone 24 phospho-erbB2 cell assay, Test (d); type: cell-based; conditions: MCF7 derived cell line (Clone 24) overexpressing erbB2, 4 hours; read-out: IC50 (μM) Test (d): Inhibition of phosphorylation of erbB2
T3 construct: to give a cell line that overexpresses full length wild type erbB2 protein; expressed in transfected cells; host or cells: MCF7 (breast carcinoma) derived 'Clone 24' cells
Description: The cells were resuspended in Growth Medium.
Plates were returned to the incubator for 4 hours and then 20 μl of 20% formaldehyde solution in PBS was added to each well and the plate was left at room temperature for 30 minutes. This fixative solution was removed with a multichannel pipette, 100 μl of PBS was added to each well and then removed with a multichannel pipette and then 50 μl PBS was added to each well. Plates were then sealed and stored for up to 2 weeks at 4° C.
Immunostaining was performed at room temperature. […] Then this primary antibody solution was removed from the wells using a plate washer followed by two 200 μl PBS/Tween 20 washes using a plate washer. […] From now onwards, wherever possible, plates were protected from light exposure, at this stage by sealing with black backing tape.
The Fluorescence signal is each well was measured using an Acumen Explorer Instrument (Acumen Bioscience Ltd.), a plate reader that can be used to rapidly quantitate features of images generated by laser-scanning. […] Fluorescence dose response data obtained with each compound was exported into a suitable software package (such as Origin) to perform curve fitting analysis. Inhibition of erbB2 phosphorylation was expressed as an IC50 value.

T2 sequence (P04626 676-1255 limits assumed): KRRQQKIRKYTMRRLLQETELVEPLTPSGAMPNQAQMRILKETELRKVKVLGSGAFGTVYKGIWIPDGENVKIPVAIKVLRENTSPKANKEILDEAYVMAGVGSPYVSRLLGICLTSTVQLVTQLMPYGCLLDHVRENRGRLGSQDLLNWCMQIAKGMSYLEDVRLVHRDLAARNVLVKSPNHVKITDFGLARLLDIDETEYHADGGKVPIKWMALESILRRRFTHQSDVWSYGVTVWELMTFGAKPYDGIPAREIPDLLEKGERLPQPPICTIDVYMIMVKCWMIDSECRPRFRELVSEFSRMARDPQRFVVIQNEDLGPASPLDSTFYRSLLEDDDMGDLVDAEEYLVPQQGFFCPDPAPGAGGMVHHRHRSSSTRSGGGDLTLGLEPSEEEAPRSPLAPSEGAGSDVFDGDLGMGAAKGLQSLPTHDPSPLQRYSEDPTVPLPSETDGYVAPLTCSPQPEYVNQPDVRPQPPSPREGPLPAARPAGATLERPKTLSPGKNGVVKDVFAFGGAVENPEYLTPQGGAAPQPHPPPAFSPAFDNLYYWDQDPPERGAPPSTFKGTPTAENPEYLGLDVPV
T3 sequence (P04626 23-1255): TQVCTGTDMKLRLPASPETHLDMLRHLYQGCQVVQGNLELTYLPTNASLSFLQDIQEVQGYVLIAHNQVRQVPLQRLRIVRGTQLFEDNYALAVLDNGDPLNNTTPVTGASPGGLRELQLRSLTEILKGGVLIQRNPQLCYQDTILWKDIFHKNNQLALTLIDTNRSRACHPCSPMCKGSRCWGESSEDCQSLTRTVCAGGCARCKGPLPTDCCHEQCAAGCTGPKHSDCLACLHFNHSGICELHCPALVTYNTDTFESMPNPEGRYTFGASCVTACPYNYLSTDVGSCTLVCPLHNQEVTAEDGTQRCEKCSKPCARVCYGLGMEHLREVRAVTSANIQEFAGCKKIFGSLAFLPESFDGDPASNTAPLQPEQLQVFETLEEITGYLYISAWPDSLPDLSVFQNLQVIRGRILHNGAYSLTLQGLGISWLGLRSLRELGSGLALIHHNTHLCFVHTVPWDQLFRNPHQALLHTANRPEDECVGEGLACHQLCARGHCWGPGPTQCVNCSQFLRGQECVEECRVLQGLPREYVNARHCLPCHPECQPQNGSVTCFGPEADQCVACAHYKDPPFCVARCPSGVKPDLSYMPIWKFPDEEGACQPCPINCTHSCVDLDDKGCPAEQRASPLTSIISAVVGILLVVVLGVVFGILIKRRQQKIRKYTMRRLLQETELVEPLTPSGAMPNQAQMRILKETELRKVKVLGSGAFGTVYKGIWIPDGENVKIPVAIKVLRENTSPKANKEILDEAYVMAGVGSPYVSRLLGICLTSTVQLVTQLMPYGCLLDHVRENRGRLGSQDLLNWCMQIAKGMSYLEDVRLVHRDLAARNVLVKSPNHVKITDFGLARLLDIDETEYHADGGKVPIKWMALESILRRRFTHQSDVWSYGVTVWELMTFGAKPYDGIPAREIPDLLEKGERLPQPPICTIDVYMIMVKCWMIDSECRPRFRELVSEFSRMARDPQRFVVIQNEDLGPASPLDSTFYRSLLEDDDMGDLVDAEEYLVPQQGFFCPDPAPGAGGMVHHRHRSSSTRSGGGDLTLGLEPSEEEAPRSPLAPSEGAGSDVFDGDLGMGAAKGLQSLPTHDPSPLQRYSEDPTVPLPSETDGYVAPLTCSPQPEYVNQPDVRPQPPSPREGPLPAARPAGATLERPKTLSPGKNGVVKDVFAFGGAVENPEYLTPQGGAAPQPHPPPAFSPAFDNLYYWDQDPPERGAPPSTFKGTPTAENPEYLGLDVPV
T1 sequence (P00533 669-1210 limits assumed): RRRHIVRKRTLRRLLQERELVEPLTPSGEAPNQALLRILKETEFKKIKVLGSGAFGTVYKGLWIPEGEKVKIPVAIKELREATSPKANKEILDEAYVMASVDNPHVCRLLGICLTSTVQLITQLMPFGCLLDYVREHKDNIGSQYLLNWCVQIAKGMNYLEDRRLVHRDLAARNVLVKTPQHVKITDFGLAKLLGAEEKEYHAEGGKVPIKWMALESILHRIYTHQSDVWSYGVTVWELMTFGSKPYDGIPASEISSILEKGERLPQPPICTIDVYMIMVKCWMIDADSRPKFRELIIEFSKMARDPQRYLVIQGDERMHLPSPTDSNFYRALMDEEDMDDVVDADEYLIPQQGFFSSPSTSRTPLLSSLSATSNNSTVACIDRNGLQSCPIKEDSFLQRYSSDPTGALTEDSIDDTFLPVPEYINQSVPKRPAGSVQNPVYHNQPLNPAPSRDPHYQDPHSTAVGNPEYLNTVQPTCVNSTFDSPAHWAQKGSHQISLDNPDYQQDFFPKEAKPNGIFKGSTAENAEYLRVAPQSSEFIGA

IC50 (EGFR tyrosine kinase): 0.71 µM | IC50 (erbB2 tyrosine kinase): 0.027 µM | IC50 (erbB2): 0.083 µM
SMILES: Cc1ccc(Oc2ccc(Nc3ncnc4[nH]nc(OCCN5CCOCC5)c34)cc2C)cn1 [Example 42, N-{3-methyl-4-[(6-methylpyridin-3-yl)oxy]phenyl}-3-(2-morpholin-4-ylethoxy)-1H-pyrazolo[3,4-d]pyrimidin-4-amine]
